Experimental data taken from the supplement of paper PMC11208160.

Experiment: recombinant UMI read abundance after kanamycin selection (control-corrected) (log10(CPM+1)); higher = more efficient recombination; extreme values may be limits of the assay; sequences stand for … in AGTGCAGAGAAAATCGGCCAGTTTTCTCTGCCTGCAGTCCGCATGCCGTGGGACCCCTTGGGTTCTAACCTGTTGCCTAGATTTATGCAGCGGACTGCCTTTCTCCCAAAGTGATAAACCGG…AGGTTGGTTTCACT; site = the 11-nt donor
Method in brief: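 Values are reported as log10(CPM+1), obtained by converting sequencing counts to CPM, averaging replicates and scaling by control-derived factors. The counts came from recombinant UMIs amplified by PCR across the donor–target junction. These UMIs came from a pooled Escherichia coli screen of donor and donor-binding-loop pairs for the IS621 bridge recombinase, plated with IPTG (0.07 mM) plus kanamycin or left unselected, in two replicates each.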
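Note: IS621 bridge recombinase in Escherichia coli cells against a fixed T5 target plasmid.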

Sequence	recombinant UMI read abundance (log10)
TTATGTCCATGGACCGGTTTTCCCGGTAATCCGTATTTGTC (site TTATGTCCTGA)	0.363
TTCAAACCATGGACCGGTTTTCCCGGTAATCCGTATTTGCG (site TTCAAACCTCG)	0
TTCAAGACATGGACCGGTTTTCCCGGTAATCCGTATTTGCC (site TTCAAGACTGG)	0
TTCACCGCATGGACCGGTTTTCCCGGTAATCCGTATTTGCG (site TACACCGCTCG)	0.00969
TTCACCGCATGGACCGGTTTTCCCGGTAATCCGTATTTGCG (site TCCACCGCTCG)	0.017
TTCACCGCATGGACCGGTTTTCCCGGTAATCCGTATTTGCG (site TGCACCGCTCG)	0.0109
TTCACCGCATGGACCGGTTTTCCCGGTAATCCGTATTTGCG (site TTCACCGCTCG)	0.0246
TTCACCTCATGGACCGGTTTTCCCGGTAATCCGTATTTGGT (site TTCACCTCTAC)	0
TTCACTACATGGACCGGTTTTCCCGGTAATCCGTATTTGAG (site TTCACTACTCT)	0.00204
TTCACTCCATGGACCGGTTTTCCCGGTAATCCGTATTTGAG (site TTCACTCCTCT)	0
TTCATTGCATGGACCGGTTTTCCCGGTAATCCGTATTTGAA (site TTCATTGCTTT)	0
TTCCACCCATGGACCGGTTTTCCCGGTAATCCGTATTTGAC (site TTCCACCCTGT)	0
TTCCCTTCATGGACCGGTTTTCCCGGTAATCCGTATTTGCA (site TTCCCTTCTTG)	0
TTCCGCTCATGGACCGGTTTTCCCGGTAATCCGTATTTGTG (site TTCCGCTCTCA)	0
TTCCTTTCATGGACCGGTTTTCCCGGTAATCCGTATTTGAT (site TTCCTTTCTAT)	0
TTCGACCCATGGACCGGTTTTCCCGGTAATCCGTATTTGGC (site TTCGACCCTGC)	0
TTCGACTCATGGACCGGTTTTCCCGGTAATCCGTATTTGAC (site TTCGACTCTGT)	1.03
TTCGACTCATGGACCGGTTTTCCCGGTAATCCGTATTTGTT (site TTCGACTCTAA)	1.01
TTCGCGCCATGGACCGGTTTTCCCGGTAATCCGTATTTGTA (site TTCGCGCCTTA)	0.00689

Sequence	recombinant UMI read abundance (log10)
TTCGCTGCATGGACCGGTTTTCCCGGTAATCCGTATTTGGG (site TTCGCTGCTCC)	0.00922
TTCGGTGCATGGACCGGTTTTCCCGGTAATCCGTATTTGCC (site TTCGGTGCTGG)	0
TTCGGTTCATGGACCGGTTTTCCCGGTAATCCGTATTTGAC (site TTCGGTTCTGT)	0
TTCGGTTCATGGACCGGTTTTCCCGGTAATCCGTATTTGGA (site TTCGGTTCTTC)	0
TTCTAAACATGGACCGGTTTTCCCGGTAATCCGTATTTGCA (site TTCTAAACTTG)	2.65
TTCTATTCATGGACCGGTTTTCCCGGTAATCCGTATTTGCT (site TTCTATTCTAG)	0
TTCTCAGCATGGACCGGTTTTCCCGGTAATCCGTATTTGAG (site TTCTCAGCTCT)	0.00607
TTCTCTCCATGGACCGGTTTTCCCGGTAATCCGTATTTGAA (site TTCTCTCCTTT)	0.019
TTCTTGACATGGACCGGTTTTCCCGGTAATCCGTATTTGTG (site TTCTTGACTCA)	0.0069
TTGAATCCATGGACCGGTTTTCCCGGTAATCCGTATTTGGA (site TTGAATCCTTC)	0.123
TTGACCCCATGGACCGGTTTTCCCGGTAATCCGTATTTGAT (site TTGACCCCTAT)	0.347
TTGACGTCATGGACCGGTTTTCCCGGTAATCCGTATTTGTT (site TTGACGTCTAA)	0.101
TTGAGAACATGGACCGGTTTTCCCGGTAATCCGTATTTGAC (site TTGAGAACTGT)	0.447
TTGAGAACATGGACCGGTTTTCCCGGTAATCCGTATTTGCC (site TTGAGAACTGG)	1.36
TTGATCTCATGGACCGGTTTTCCCGGTAATCCGTATTTGCG (site TTGATCTCTCG)	1.95
TTGCAGCCATGGACCGGTTTTCCCGGTAATCCGTATTTGCT (site TTGCAGCCTAG)	0.0502
TTGCATGCATGGACCGGTTTTCCCGGTAATCCGTATTTGCA (site TTGCATGCTTG)	0
TTGCCGGCATGGACCGGTTTTCCCGGTAATCCGTATTTGGC (site TAGCCGGCTGC)	0.00655
TTGCCGGCATGGACCGGTTTTCCCGGTAATCCGTATTTGGC (site TCGCCGGCTGC)	0
